Source: patent US20080161232A1, “C5a Receptor Antagonist” (JERINI AG, priority 2005, published 2008)
Starred links: 1 amine or outer side, 2 acyl side, 3 side chain; linkers in the order of their positions; H or OH if unused. Positions of bridges follow the written chain, without caps; N, C: chain ends. Non-standard residues stand in square brackets, D forms with d. Residues, ends and D or L forms follow the SMILES beside them. *: point of attachment. Phe(4-guanidino) = N=C(N)Nc1ccc(C[C@H](N)C(=O)O)cc1; Phe(Nα-CONH2) = NC(=O)N[C@@H](Cc1ccccc1)C(=O)*; dβ3hPhg = O=C(C[C@H](N[*:1])c1ccccc1)[*:2]; Phe(4-NH2) = Nc1ccc(C[C@H](N)C(=O)O)cc1; X5 = CCN(CC)CCC[C@H](N[*:1])C(=O)[*:2]; Bta = N[C@@H](Cc1csc2ccccc12)C(=O)O; d(hCha) = N[C@H](CCC1CCCCC1)C(=O)O; Hydrocinnamoyl = O=C(CCc1ccccc1)*; Hyp = O=C(O)[C@@H]1C[C@@H](O)CN1; hArg = N=C(N)NCCCC[C@H](N)C(=O)O; 3Pal = N[C@@H](Cc1cccnc1)C(=O)O; dCha = N[C@H](CC1CCCCC1)C(=O)O; dChg = N[C@@H](C(=O)O)C1CCCCC1; Phg = N[C@H](C(=O)O)c1ccccc1; Nle = CCCC[C@H](N)C(=O)O; Orn = NCCC[C@H](N)C(=O)O; Aze = O=C(O)[C@@H]1CCN1; Dab = NCC[C@H](N)C(=O)O; Fluoroacetyl = O=C(CF)*; X13 = c1ccc2c(c1)nnn2C*; Piv = CC(C)(C)C(=O)*; Acm = CC(=O)NC*; Moc = COC(=O)*

Target: T1, human C5aR(CD88) (Homo sapiens, UniProt P21730)
T1 construct: expressed in transfected cells; host or cells: rat basophilic leukemia cells (RBL)
T1 sequence (P21730 1-350): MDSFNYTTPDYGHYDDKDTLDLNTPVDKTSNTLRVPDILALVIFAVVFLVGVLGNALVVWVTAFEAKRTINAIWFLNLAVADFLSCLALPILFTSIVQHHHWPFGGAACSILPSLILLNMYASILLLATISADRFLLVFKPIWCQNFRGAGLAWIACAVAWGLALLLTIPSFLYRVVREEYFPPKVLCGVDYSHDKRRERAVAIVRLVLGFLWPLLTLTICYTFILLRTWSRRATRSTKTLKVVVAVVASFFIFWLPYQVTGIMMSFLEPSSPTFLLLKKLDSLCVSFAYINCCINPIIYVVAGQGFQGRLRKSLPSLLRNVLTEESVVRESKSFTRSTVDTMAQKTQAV
Test: Determination of the IC50 value in an enzyme release assay (functional assay, antagonistic activity)
Format: cell-based
Conditions: activity (group), antagonistic activity; IC50 group in enzyme release assay, RBL cells expressing human C5aR(CD88)

| Structure (SMILES) | IC50 [nM] |
| --- | --- |
| NCCC[C@H](NC(=O)[C@H](Cc1ccccc1)NC(=O)CF)C(=O)N1CCC[C@H]1C(=O)N[C@H](CC1CCCCC1)C(=O)N[C@@H](Cc1csc2ccccc12)C(=O)N[C@@H](Cc1ccccc1)C(N)=O [Compound 142, FH2C—CO-Phe-Orn-Pro-cha-Bta-Phe-NH2] (Fluoroacetyl-F[Orn]P[dCha][Bta]F-NH2) | 20 to 50 |

Same assay, conditions: antagonistic activity; IC50 group in enzyme release assay, RBL cells expressing human C5aR(CD88); read-out: activity (group)

| Structure (SMILES) | IC50 [nM] |
| --- | --- |
| CC(=O)N[C@@H](Cc1ccccc1)C(=O)N[C@@H](CSCn1nnc2ccccc21)C(=O)N1CCC[C@H]1C(=O)N[C@H](CC1CCCCC1)C(=O)N[C@@H](Cc1csc2ccccc12)C(=O)N[C@@H](Cc1ccccc1)C(N)=O [Compound 119, Ac-Phe-Eec-Pro-cha-Bta-Phe-NH2] (Ac-FC(X13)P[dCha][Bta]F-NH2) | 50 to 200 |
| CCCC[C@H](NC(=O)[C@H](Cc1ccccc1)NC(C)=O)C(=O)N1CCC[C@H]1C(=O)N[C@H](CC1CCCCC1)C(=O)N[C@@H](Cc1csc2ccccc12)C(=O)N[C@@H](Cc1ccccc1)C(N)=O [Compound 120, Ac-Phe-Nle-Pro-cha-Bta-Phe-NH2] (Ac-F[Nle]P[dCha][Bta]F-NH2) | 50 to 200 |
| CC(=O)N[C@@H](Cc1ccccc1)C(=O)N[C@@H](CCCCNC(=N)N)C(=O)N1CCC[C@H]1C(=O)N[C@H](CC1CCCCC1)C(=O)N[C@@H](Cc1csc2ccccc12)C(=O)N[C@@H](Cc1ccccc1)C(N)=O [Compound 121, Ac-Phe-Har-Pro-cha-Bta-Phe-NH2] (Ac-F[hArg]P[dCha][Bta]F-NH2) | 20 to 50 |
| CC(=O)N[C@@H](Cc1ccccc1)C(=O)N[C@@H](CCCNC(=N)N)C(=O)N1CCC[C@H]1C(=O)N[C@H](CC1CCCCC1)C(=O)N[C@@H](Cc1csc2ccccc12)C(=O)N[C@@H](Cc1ccccc1)C(N)=O [Compound 122, Ac-Phe-Arg-Pro-cha-Bta-Phe-NH2] (Ac-FRP[dCha][Bta]F-NH2) | 20 to 50 |
| CC(=O)N[C@@H](Cc1ccccc1)C(=O)N[C@@H](Cc1cccnc1)C(=O)N1CCC[C@H]1C(=O)N[C@H](CC1CCCCC1)C(=O)N[C@@H](Cc1csc2ccccc12)C(=O)N[C@@H](Cc1ccccc1)C(N)=O [Compound 124, Ac-Phe-Mpa-Pro-cha-Bta-Phe-NH2] (Ac-F[3Pal]P[dCha][Bta]F-NH2) | 50 to 200 |
| CC(=O)N[C@@H](Cc1ccccc1)C(=O)N[C@@H](Cc1ccc(N)cc1)C(=O)N1CCC[C@H]1C(=O)N[C@H](CC1CCCCC1)C(=O)N[C@@H](Cc1csc2ccccc12)C(=O)N[C@@H](Cc1ccccc1)C(N)=O [Compound 127, Ac-Phe-Paf-Pro-cha-Bta-Phe-NH2] (Ac-F[Phe(4-NH2)]P[dCha][Bta]F-NH2) | 200 to 2000 |
| NCCC[C@H](NC(=O)[C@H](Cc1ccccc1)NC(N)=O)C(=O)N1CCC[C@H]1C(=O)N[C@H](CC1CCCCC1)C(=O)N[C@@H](Cc1csc2ccccc12)C(=O)N[C@@H](Cc1ccccc1)C(N)=O [Compound 128, H2N—CO-Phe-Orn-Pro-cha-Bta-Phe-NH2] ({Phe(Nα-CONH2)}-[Orn]P[dCha][Bta]F-NH2) | 20 to 50 |
| COC(=O)N[C@@H](Cc1ccccc1)C(=O)N[C@@H](CCCN)C(=O)N1CCC[C@H]1C(=O)N[C@H](CC1CCCCC1)C(=O)N[C@@H](Cc1csc2ccccc12)C(=O)N[C@@H](Cc1ccccc1)C(N)=O [Compound 129, Me-O—CO-Phe-Orn-Pro-cha-Bta-Phe-NH2] (Moc-F[Orn]P[dCha][Bta]F-NH2) | 50 to 200 |
| CC(=O)N[C@@H](Cc1ccccc1)C(=O)N[C@@H](CCCN)C(=O)N1CCC[C@H]1C(=O)N[C@H](CCC1CCCCC1)C(=O)N[C@@H](Cc1c[nH]c2ccccc12)C(=O)N[C@@H](Cc1ccccc1)C(=O)O [Compound 132, Ac-Phe-Orn-Pro-hch-Trp-Phe-OH] (Ac-F[Orn]P[d(hCha)]WF-OH) | 50 to 200 |
| CC(C)(C)C(=O)N[C@@H](Cc1ccccc1)C(=O)N[C@@H](CCCN)C(=O)N1CCC[C@H]1C(=O)N[C@H](CC1CCCCC1)C(=O)N[C@@H](Cc1csc2ccccc12)C(=O)N[C@@H](Cc1ccccc1)C(N)=O [Compound 134, ^tBu-CO-Phe-Orn-Pro-cha-Bta-Phe-NH2] (Piv-F[Orn]P[dCha][Bta]F-NH2) | 50 to 200 |
| CC(=O)N[C@@H](Cc1c[nH]cn1)C(=O)N[C@@H](Cc1ccccc1)C(=O)N[C@@H](CCCN)C(=O)N1CC[C@H]1C(=O)N[C@H](CC1CCCCC1)C(=O)N[C@@H](Cc1csc2ccccc12)C(=O)N[C@@H](Cc1ccccc1)C(N)=O [Compound 138, Ac-His-Phe-Orn-Aze-cha-Bta-Phe-NH2] (Ac-HF[Orn][Aze][dCha][Bta]F-NH2) | 50 to 200 |
| CC(=O)N[C@@H](Cc1ccc(NC(=N)N)cc1)C(=O)N[C@@H](Cc1ccccc1)C(=O)N[C@@H](CCCN)C(=O)N1CC[C@H]1C(=O)N[C@H](CC1CCCCC1)C(=O)N[C@@H](Cc1csc2ccccc12)C(=O)N[C@@H](Cc1ccccc1)C(N)=O [Compound 140, Ac-Guf-Phe-Orn-Aze-cha-Bta-Phe-NH2] (Ac-[Phe(4-guanidino)]F[Orn][Aze][dCha][Bta]F-NH2) | 50 to 200 |
| CCCC[C@@H]1NC(=O)[C@H](Cc2c[nH]c3ccccc23)NC(=O)[C@@H](CC2CCCCC2)NC(=O)[C@@H]2C[C@@H](O)CN2C(=O)[C@@H](NC(=O)[C@H](Cc2ccccc2)NC(C)=O)CCCNC1=O [Compound 144, Ac-Phe-[Orn-Hyp-cha-Trp-Nle]] (Ac-F[Orn][Hyp][dCha]W[Nle]; lactam 2-C) | 10 to 20 |

Second part, the compound after the results:

| IC50 [nM] | Structure (SMILES) |
| --- | --- |
| 200 to 2000 | CC(=O)N[C@@H](Cc1ccccc1)C(=O)N[C@@H](CCCN)C(=O)N[C@@H](CO)C(=O)N[C@H](CC1CCCCC1)C(=O)N[C@@H](Cc1c[nH]c2ccccc12)C(=O)N[C@@H](Cc1ccccc1)C(=O)O [Compound 117, Ac-Phe-Orn-Ser-cha-Trp-Phe-OH] (Ac-F[Orn]S[dCha]WF-OH) |
| 200 to 2000 | CC(=O)N[C@@H](Cc1ccccc1)C(=O)N[C@@H](CCCN)C(=O)N1CCC[C@H]1C(=O)N[C@@H](C(=O)N[C@@H](Cc1c[nH]c2ccccc12)C(=O)N[C@@H](Cc1ccccc1)C(=O)O)C1CCCCC1 [Compound 118, Ac-Phe-Orn-Pro-chg-Trp-Phe-OH] (Ac-F[Orn]P[dChg]WF-OH) |
| 200 to 2000 | CC(=O)NCSC[C@H](NC(=O)[C@H](Cc1ccccc1)NC(C)=O)C(=O)N1CCC[C@H]1C(=O)N[C@H](CC1CCCCC1)C(=O)N[C@@H](Cc1csc2ccccc12)C(=O)N[C@@H](Cc1ccccc1)C(N)=O [Compound 123, Ac-Phe-Cys(Acm)-Pro-cha-Bta-Phe-NH2] (Ac-FC(Acm)P[dCha][Bta]F-NH2) |
| 20 to 50 | CC(=O)N[C@@H](CC(=O)N[C@@H](CCCN)C(=O)N1CCC[C@H]1C(=O)N[C@H](CC1CCCCC1)C(=O)N[C@@H](Cc1csc2ccccc12)C(=O)N[C@@H](Cc1ccccc1)C(N)=O)c1ccccc1 [Compound 125, Ac-Eby-Orn-Pro-cha-Bta-Phe-NH2] (Ac-[dβ3hPhg][Orn]P[dCha][Bta]F-NH2) |
| 50 to 200 | CC(=O)N[C@H](C(=O)N[C@@H](CCCN)C(=O)N1CCC[C@H]1C(=O)N[C@H](CC1CCCCC1)C(=O)N[C@@H](Cc1csc2ccccc12)C(=O)N[C@@H](Cc1ccccc1)C(N)=O)c1ccccc1 [Compound 126, Ac-Phg-Orn-Pro-cha-Bta-Phe-NH2] (Ac-[Phg][Orn]P[dCha][Bta]F-NH2) |
| 10 to 20 | CC(=O)N[C@@H](CCCCN)C(=O)N[C@@H](Cc1ccccc1)C(=O)N[C@@H](CCCN)C(=O)N1CC[C@H]1C(=O)N[C@H](CC1CCCCC1)C(=O)N[C@@H](Cc1csc2ccccc12)C(=O)N[C@@H](Cc1ccccc1)C(N)=O [Compound 135, Ac-Lys-Phe-Orn-Aze-cha-Bta-Phe-NH2] (Ac-KF[Orn][Aze][dCha][Bta]F-NH2) |
| 20 to 50 | CC(=O)NCC(=O)N[C@@H](Cc1ccccc1)C(=O)N[C@@H](CCCN)C(=O)N1CC[C@H]1C(=O)N[C@H](CC1CCCCC1)C(=O)N[C@@H](Cc1csc2ccccc12)C(=O)N[C@@H](Cc1ccccc1)C(N)=O [Compound 136, Ac-Gly-Phe-Orn-Aze-cha-Bta-Phe-NH2] (Ac-GF[Orn][Aze][dCha][Bta]F-NH2) |
| 20 to 50 | CC(=O)N[C@@H](CCCNC(=N)N)C(=O)N[C@@H](Cc1ccccc1)C(=O)N[C@@H](CCCN)C(=O)N1CC[C@H]1C(=O)N[C@H](CC1CCCCC1)C(=O)N[C@@H](Cc1csc2ccccc12)C(=O)N[C@@H](Cc1ccccc1)C(N)=O [Compound 137, Ac-Arg-Phe-Orn-Aze-cha-Bta-Phe-NH2] (Ac-RF[Orn][Aze][dCha][Bta]F-NH2) |
| 50 to 200 | CC(=O)N[C@@H](CO)C(=O)N[C@@H](Cc1ccccc1)C(=O)N[C@@H](CCCN)C(=O)N1CC[C@H]1C(=O)N[C@H](CC1CCCCC1)C(=O)N[C@@H](Cc1csc2ccccc12)C(=O)N[C@@H](Cc1ccccc1)C(N)=O [Compound 139, Ac-Ser-Phe-Orn-Aze-cha-Bta-Phe-NH2] (Ac-SF[Orn][Aze][dCha][Bta]F-NH2) |
| 50 to 200 | CC(=O)N[C@@H](CCN)C(=O)N[C@@H](Cc1ccccc1)C(=O)N[C@@H](CCCN)C(=O)N1CC[C@H]1C(=O)N[C@H](CC1CCCCC1)C(=O)N[C@@H](Cc1csc2ccccc12)C(=O)N[C@@H](Cc1ccccc1)C(N)=O [Compound 141, Ac-Dab-Phe-Orn-Aze-cha-Bta-Phe-NH2] (Ac-[Dab]F[Orn][Aze][dCha][Bta]F-NH2) |
| 50 to 200 | CCN(CC)CCC[C@H](NC(=O)[C@H](Cc1ccccc1)NC(C)=O)C(=O)N1CCC[C@H]1C(=O)N[C@H](CC1CCCCC1)C(=O)N[C@@H](Cc1c[nH]c2ccccc12)C(=O)N[C@@H](Cc1ccccc1)C(N)=O [Compound 143, Ac-Phe-Orn(Et2)-Pro-cha-Trp-Phe-NH2] (Ac-F[X5]P[dCha]WF-NH2) |
| 20 to 50 | CCCC[C@@H]1NC(=O)[C@H](Cc2c[nH]c3ccccc23)NC(=O)[C@@H](CC2CCCCC2)NC(=O)[C@@H]2C[C@@H](O)CN2C(=O)[C@@H](NC(=O)CCc2ccccc2)CCCNC1=O [Compound 145, 3PP-[Orn-Hyp-cha-Trp-Nle]] (Hydrocinnamoyl-[Orn][Hyp][dCha]W[Nle]; lactam 1-C) |
